According to patent publication EP0618917B1, “1'-AMINO-2- (BENZOTHIAZOLYL)METHYL]SPIRO ISOQUINOLINE-4(1H),3'-PYRROLIDINE]-1,2',3,5'(2H)-TETRONES AND ANALOGS THEREOF USEFUL AS ALDOSE REDUCTASE INHIBITORS” (AMERICAN HOME PRODUCTS CORPORATION, priority 1991, dated 1993):

Tested on: aldose reductase
Assay: Galactitol (dulcitol) accumulation in galactosemic rats, in vivo
Conditions: percentage decrease of dulcitol accumulation vs untreated galactose-fed rats, four days; for % Lowering Galactitol Accumulation In Vivo %(D): diaphragm; for % Lowering Galactitol Accumulation In Vivo %(L): lens
Excerpt: The aldose reductase inhibiting property of the compounds of this invention and the utilization of the compounds in preventing, diminishing and alleviating diabetic complications are demonstrable in experiments using galactosemic rats, see Dvornik et al., Science, 182, 1146 (1973). Such experiments are exemplified hereinbelow after the listing of the following general comments pertaining to these experiments: • (a) Four or more groups of six male rats, 50-70 g, Sprague-Dawley strain, were used. The first group, the control group, was fed a mixture of laboratory chow (rodent Laboratory Chow, Purina) and glucose at 20% (w/w %) concentration. An untreated galactosemic group was fed a similar diet in which galactose was substituted for glucose. The third group was fed a diet prepared by mixing a given amount of the test compound with the galactose containing diet The concentration of galactose in the diet of the treated groups was the same as that for the untreated galactosemic group. • (b) After four days, the animals were killed by euthanization. Both the lens and sciatic nerve were removed, weighed and stored frozen for polyol determination. • (c) The polyol determination was performed by a modification of the procedure of M. Kraml and L. Cosyns, Clin. Biochem., 2, 373 (1969). Only two minor reagent changes were made: (a) the rinsing mixture was an aqueous 5% (w/v) trichloroacetic acid solution and (b) the stock solution was prepared by dissolving 25 mg of dulcitol in 100 mL of an aqueous trichloroacetic acid solution. [N.B.: For each experiment the average value found in the tissue from rats fed the glucose diet was subtracted from the individual values found in the corresponding tissue in galactose-fed rats to obtain the amount of polyol accumulated.] The aldose reductase inhibiting effects of the compounds of formula (I) were also tested by employing an in vitro testing procedure similar to that described by S. Hayman and J.H. Kinoshita, J. Biol. Chem., 240, 877 (1965). In the present case the procedure of Hayman and Kinoshita was modified in that the final chromatography step was omitted in the preparation of the enzyme from bovine lens.
The figures under L, N, and D represent the percentage decrease of dulcitol accumulation in the tissues of the lens, sciatic nerve, and diaphragm, respectively for treated rats as compared to untreated rats.

Row | SMILES | % Lowering Galactitol Accumulation In Vivo %(D) (Table 2, 50 mg/kg/day in diet) | % Lowering Galactitol Accumulation In Vivo %(L) (Table 2, 50 mg/kg/day in diet) | % Lowering Galactitol Accumulation In Vivo %(D) (dose 50 mg/kg/day in diet) | % Lowering Galactitol Accumulation In Vivo %(L) (dose 50 mg/kg/day in diet)
1 | O=C1c2ccccc2C2(CC(=O)N(N=C3CCCC3)C2=O)C(=O)N1Cc1nc2cc(C(F)(F)F)ccc2s1 (stereo not drawn) [1'-(Cyclopentylideneamino)-2-[[5-(trifluoromethyl)-2-benzothiazolyl]methyl]spiro[isoquinoline-4(1H),3'pyrrolidine]-1,2',3,5'(2H)-tetrone] | 95% | 28% |  | 
2 | CC(C)=NN1C(=O)CC2(C(=O)N(Cc3nc4cc(C(F)(F)F)ccc4s3)C(=O)c3ccccc32)C1=O (stereo not drawn) [1'-[(1-Methylethylidene)amino]-2-[[5-(trifluoromethyl)-2-benzothiazolyl]methyl]spiro[isoquinoline]-1,2',3,5'(2H)-tetrone] | 97% | 37% |  | 
3 | O=C1c2ccccc2C2(CC(=O)N(N=C3CCOCC3)C2=O)C(=O)N1Cc1nc2cc(C(F)(F)F)ccc2s1 (stereo not drawn) [1'-[(Tetrahydro-4H-pyran-4-ylidene)amino]-2-[[5-(trifluoromethyl)-2-benzothiazolyl]methyl]spiro[isoquinoline-4(1H),3'-pyrrolidine]-1,2',3,5'(2H)-tetrone] | 96% | 41% |  | 
4 | NN1C(=O)CC2(C1=O)C(=O)N(Cc1nc3cc(C(F)(F)F)ccc3s1)C(=O)c1ccc(F)cc12 (stereo not drawn) [R^1=F, R^4=H, R^5=H] |  |  | 97% | 31%
5 | CC(=O)NN1C(=O)CC2(C(=O)N(Cc3nc4cc(C(F)(F)F)ccc4s3)C(=O)c3ccccc32)C1=O (stereo not drawn) [R^1=H, R^4=H, R^5=COCH3, N-[2-[[5-(trifluoromethyl)-2-benzothiazolyl]methyl]-2,3-dihydro-1,2',3,5'-tetraoxospiro[isoquinoline-4(1H),3'-pyrrolidine]-1'-yl] acetamide] |  |  | 97% | 40%
6 | NN1C(=O)CC2(C1=O)C(=O)N(Cc1nc3cc(C(F)(F)F)ccc3s1)C(=O)c1ccccc12 (stereo not drawn) [R^1=H, R^4=H, R^5=H, 1'-Amino-2-[[5-(trifluoromethyl)-2-benzothiazolyl]methyl]spiro[isoquinoline-4(1H),3'-pyrrolidine]-1,2',3,5'(2H)-tetrone] |  |  | 96% | 61%
